Results taken from patent US20250206763A1, “ENPP1 INHIBITOR” (SHANGHAI QILU PHARMACEUTICAL RESEARCH AND DEVELOPMENT …, priority 2022, published 2025).

Columns and labels:
[1] = tested on: MDA-MB-231 CM-THP1 (THP1-Dual Cells NF-κB-SEAP and IRF-Lucia luciferase Reporter Monocytes); assay: Cell Activity Test 2: MDA-MB-231 cells treated with compound and cGAMP, supernatant transferred to THP1-Dual IRF-Lucia luciferase reporter cells; format: cell-based; conditions: 30 minutes pretreatment, cGAMP 24 hours, supernatant on THP1-Dual reporter cells 24 hours, QUANTI-Luc
From the text: THP1-Dual Cells NF-κB-SEAP and IRF-Lucia luciferase Reporter Monocytes cells (Invivogen, thpd-nfis), MDA-MB-231 cells (ATCC, CRM-HTB-26), RPMI-1640 medium (Gibco, 11875-093), FBS (Gibco, 10099), penicillin-streptomycin (Gibco, 15070063), HEPES (ThermoFisher, 15630080), L-glutamine (ThermoFisher, 25030081), Normocin-Antimicrobial Reagent (InVivoGen, ant-nr-1), Zeocin (Invivogen, ant-zn-1), Blasticidin (Invivogen, ant-bl-1), Mammalian (non-canonical) CDN, cyclic [G(2′,5′)pA(3′,5′)p] (referred to as cGAMP hereinafter, Invivogen, tlrl-nacga23-1), QUANTI-Luc (InvivoGen, rep-qlc2), Multimode Plate Reader (PerkinElmer, EnVision 2105 Alpha 680 nm Laser), and conventional cell culture consumables (NEST). […]
An appropriate amount of MDA-MB-231 cells in logarithmic growth phase was taken and centrifuged at 300×g for 5 minutes, and the supernatant was removed. The cells were re-suspended with MDA-MB-231 cell growth medium and counted, and the cell density was adjusted to 6×10^4 cells/mL. […]
After 24 hours, the resulting was centrifuged at 300×g for 5 minutes, 10 μL of cell supernatant was transferred to a new 384-well plate with a white opaque bottom, followed by the addition of 25 μL of QUANTI-Luc reaction solution to each well. They were shaken well for 1 minute away from light and the plate was read immediately.

MDA-MB-231 cells = assay: Cell Activity Test 1: pNP-AMP hydrolysis on MDA-MB-231 cells, absorbance at 405; format: cell-based; conditions: Homo sapiens, 1 hour pre-incubation, 0.25 mM pNP-AMP, 5 hours of reaction, read-out: MDA-MB-231 cell biochemical IC50
Experimental: MDA-MB-231 cells were digested and suspended, the cell density was adjusted to 4.5×10^5 cells per milliliter, and the cells were seeded in 384 microtiter plates at 50 microliters per well. The cells were incubated in an incubator at 37° C. with […] for 24 h. After 24 h, the cell plates were taken out, the cell culture medium was pipetted and washed once with 50 μL of PBS. Then 20 μL of 1640 medium free of phenol red and serum was added per well, and 2× of compound was added with Tecan, with 1:3 dilution. The compounds were pre-incubated for 1 hour. Afterwards, the reaction was initiated by adding a substrate mixture (50 μL system, 0.5 mM pNP-AMP dissolved in 1640 medium free of phenol red and serum) at a final substrate concentration of 0.25 mM. Absorbance values were read at 405 nm in a microplate reader after 5 hours of reaction, 4-Parameter Logistic Curve model was applied to calculate the […] of the compounds, taking positive compounds as 100% inhibition and DMSO as 0% inhibition.

human ENPP1 = target: T1, human ENPP1 (Homo sapiens, UniProt P22413); assay: In vitro enzyme activity assay: human ENPP1 enzymatic assay (cGAMP), AMP-Glo; format: biochemical; conditions: substrate cGAMP, AMP-Glo detection
T1 construct: purchased Biovendor AP-18-081; host or cells: HEK293
T1 sequence (P22413 1-925): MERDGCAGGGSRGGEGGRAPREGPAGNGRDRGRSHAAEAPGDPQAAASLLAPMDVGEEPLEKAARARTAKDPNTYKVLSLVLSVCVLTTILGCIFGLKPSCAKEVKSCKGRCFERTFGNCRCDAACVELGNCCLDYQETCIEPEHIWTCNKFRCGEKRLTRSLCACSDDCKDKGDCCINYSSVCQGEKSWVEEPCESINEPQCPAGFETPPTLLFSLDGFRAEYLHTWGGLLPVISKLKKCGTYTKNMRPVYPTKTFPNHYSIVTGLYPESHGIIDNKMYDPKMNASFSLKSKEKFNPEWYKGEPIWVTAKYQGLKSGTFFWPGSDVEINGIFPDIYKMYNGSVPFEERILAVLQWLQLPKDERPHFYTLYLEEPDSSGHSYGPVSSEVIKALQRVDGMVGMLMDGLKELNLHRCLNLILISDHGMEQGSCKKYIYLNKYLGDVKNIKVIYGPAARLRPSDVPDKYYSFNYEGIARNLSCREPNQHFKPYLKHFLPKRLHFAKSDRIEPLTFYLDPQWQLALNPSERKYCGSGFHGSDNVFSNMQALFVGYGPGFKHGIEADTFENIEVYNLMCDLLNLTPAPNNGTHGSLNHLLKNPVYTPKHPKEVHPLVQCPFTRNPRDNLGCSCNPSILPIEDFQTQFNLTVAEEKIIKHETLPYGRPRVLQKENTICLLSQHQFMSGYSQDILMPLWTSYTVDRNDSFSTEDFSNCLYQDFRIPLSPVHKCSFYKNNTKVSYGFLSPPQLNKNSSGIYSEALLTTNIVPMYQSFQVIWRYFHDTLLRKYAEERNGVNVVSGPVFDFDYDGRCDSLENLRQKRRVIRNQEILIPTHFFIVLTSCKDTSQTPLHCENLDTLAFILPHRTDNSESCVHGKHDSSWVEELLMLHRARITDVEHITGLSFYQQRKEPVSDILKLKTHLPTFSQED
Experimental: AMP-Glo Assay Kit (PROMEGA, V5012), ENPP-1-IN-1 (MCE, HY-129490), white opaque 384-well plate (Perkin Elmer, 6008289), Mammalian (non-canonical) CDN, cyclic[g(2′,5′)pA(3′,5′)p](referred to as cGAMP hereinafter, Invivogen, tlrl-nacga23-5), ENPP1 Protein Human HEK293 (Biovendor, AP-18-081).
• 1) Preparing 1× reaction buffer (Tris buffer), 1× enzyme buffer, and 1× substrate buffer; • 2) diluting the compounds using Echo550 and supplementing with DMSO; • 3) pre-loading 2.5 μL of enzyme solution on a reaction plate (adding 2.5 μL of buffer instead as negative control) and incubating it at room temperature; • 4) adding 2.5 μL of substrate solution to the system and incubating it at room temperature; • 5) adding 5 μL of AMP-Glo solution that has been allowed to cooled down to room temperature, centrifuging and reacting at room temperature, • 6) adding 10 μL of AMP Detection solution at room temperature, centrifuging and reacting at room temperature; and • 7) reading the plate using EnVision.

Row | EC50 [1] [nM] | IC50 (MDA-MB-231 cells) [nM] | IC50 (human ENPP1) [nM] | Compound
1 | 3.5 | 1.12 | < 10 | O=c1[nH]c2cnc3c4c(ccc3c2n1Cc1ccc(P(=O)(O)O)c(F)c1)OCO4 [Compound 1, (2-fluoro-4-((7-oxo-6,7-dihydro-8H-[1,3]dioxolo[4,5-h]imidazo[4,5-c]quinolin-8-yl)methyl)phenyl)phosphonic add]
2 |  |  | < 10 | CN(C)CCn1c(=O)n(Cc2ccc(P(=O)(O)O)c(F)c2)c2c3ccc4c(c3ncc21)OCO4 [Compound 33]
3 |  |  | < 10 | CN(C)CCn1c(=O)n(Cc2c(F)cc(S(N)(=O)=O)cc2F)c2c3ccc4c(c3ncc21)OCO4 [Compound 53]

Continued, compound first:

Row | Compound | EC50 [1] [nM] | IC50 (MDA-MB-231 cells) [nM] | IC50 (human ENPP1) [nM]
4 | COc1ccc2c(ncc3[nH]c(=O)n(Cc4ccc(P(=O)(O)O)c(F)c4)c32)n1 [Control Compound, reference compound] | 14.6 | 9.78 | 
5 | NS(=O)(=O)c1ccc(Cn2c(=O)[nH]c3cnc4c5c(ccc4c32)OCO5)c(F)c1 [Compound 39] |  |  | < 10
6 | O=c1[nH]c2cnc3c4c(ccc3c2n1Cc1cc(F)c(P(=O)(O)O)cc1F)OCO4 [Compound 17] |  |  | < 10
7 | CC(c1ccc(P(=O)(O)O)c(F)c1)n1c(=O)[nH]c2cnc3c4c(ccc3c21)OCO4 (stereo not shown) [Compound 5-P2] |  |  | < 10
